Values quoted from earlier work, collected in patent US9200991B2, “Sorptive extraction layer for immobilized liquid extraction” (Tecan Trading AG, priority 2013, dated 2015).

CC(C)Cc1ccc(C(C)C(=O)O)cc1 (stereo not shown) [Ibuprofen]
reported logP: approximately 3.8
